Measured values reported in US5512305A, “Invitroinhibition of the HIV virus with ionic tungstoniobate compounds” (priority 1990, dated 1996).

Experiments:
cells = details: background statement; cited from earlier work
[1] = Storage stability / shelf-life; assay type: physicochemical
Vero cells = experiment: Cytotoxicity assay in Vero cells; assay type: cell-based
HSV-1 = experiment: Plaque reduction assay for herpes simplex in Vero cells; assay type: cell-based
Source text: Cell culture assays for herpes simplex.
Viruses. (HSV-1) Mycoplasma-free Vero cells, obtained from Flow Laboratory (McLean, Va.), were used for plaque assays.

HIV-1 (strain LAV-1) = experiment: Inhibition of virus replication in human PBMC (supernatant reverse transcriptase activity); assay type: cell-based; details: 50% inhibition of RT activity vs untreated controls, six days after infection
Experimental: (§1) Cells. Human peripheral blood mononuclear cells (PBMC) from healthy HIV-1 seronegative and hepatitis B virus seronegative donors were isolated by Ficoll-Hypaque discontinuous gradient centrifugation at 1,000×g for 30 minutes, washed twice in phosphate-buffered saline (pH 7.2; PBS), and pelleted at 300×g for 10 minutes. Before infection, the cells were stimulated by phytohemagglutinin […] at a concentration of 6 μg/ml for three days in RPMI 1640 medium supplemented with 15% heat-inactivated fetal calf serum, 1.5 mM L-glutamine, penicillin (100 U/ml), streptomycin (100 μg/ml), and 4 mM sodium bicarbonate buffer.
Viruses. HIV-1 (strain LAV-1) was obtained from Dr. P. Feorino (Centers for Disease Control, Atlanta, Ga.). […]
PBMC. […] The mean reverse transcriptase (RT) activity of the inocula was 50,000 decompositions per min/ml corresponding to about 100 TCID50, as determined by Groopman et al. (Groopman et al, AIDS Res. Human Retro. 3, 71-85, 1987. The drugs at twice their final concentration in 5 ml of RPMI 1640 medium, supplemented as described above, were added to the cultures. Uninfected and untreated PBMC at equivalent cell densities were grown in parallel as controls. The cultures were maintained in a humidified 5% CO2 -95% air incubator at 37° C. for six days after infection, at which point all cultures were sampled for supernatant reverse transcriptase (RT) activity. […]
The RT assay was performed in 96-well microtiter plates, as described by Spira et al. (Spira et al, J. Clin. Microbiol. 22, 97-99, 1987). […] Four ml of scintillation fluid (Econofluor, NEN Research Products, Boston, Mass.) were added and the amount of radioactivity in each sample was determined using a Packard Tri-Carb liquid scintillation analyzer (model 2,000CA). […]

human PBMC = experiment: Cytotoxicity assay in uninfected PHA stimulated human PBMC (trypan blue dye-exclusion); assay type: cell-based; details: 6 days, cell viability
Experimental: as §1
Cytotoxicity assay. The drugs were evaluated for their potential toxic affects on uninfected PHA stimulated human PBMC. Flasks were seeded so that the final cell concentration was 2×10^5 cells/mi. The cells were cultured with and without drug for 6 days, at which time aliquots were counted for cell viability, as assessed by the trypan blue dye-exclusion method using a hemacytometer. The median inhibitory concentration (IC50) was calculated using the median effect method (Chou et al, Elsevier-Biosoft, Elsevier Science Publishers, Cambridge, U.K., 1985; Chou et al, Adv. Enz. Regul. 22, 27-55, 1984). The results are reported as IC50 PBMC below.

herpes virus = details: JP 64-38,022; cited from earlier work
[2] = compound abandoned; cited from earlier work
HIV = details: Chemical and Engineering News, December 1986; cited from earlier work

Compound | IC50 (Vero cells) | EC50 (HSV-1) | EC50 (HIV-1 (strain LAV-1)) | IC50 (human PBMC) | also measured
Cc1cn([C@H]2C[C@H](N=[N+]=[N-])[C@@H](CO)O2)c(=O)[nH]c1=O [AZT] | – | – | – | – | toxicity to cells (cells): high toxicity to cells
(Me4 N)9 P2 Nb3 W15 O62 !.15H2 O.CH3 CN | – | – | – | – | stability on storage [1]: stable on storage
(Me4 N/Na/K)5 Nb3 W3 O19 !.nH2 O [Me4 N/Na/K!5 Nb3 W3 O19 !] | > 100 µM | 5.66 µM | 8.56 µM | > 100 µM | –
(Na/K)6 Nb4 W2 O19 !.nH2 O [Na/K!6 Nb4 W2 O19 !] | > 100 µM | > 100 µM | 0.073 µM | > 100 µM | –
K5 BW12 O40 | – | – | – | – | activity against herpes virus (herpes virus): activity against herpes virus
K7 PW10 Ti2 O40 | – | – | – | – | activity against herpes virus (herpes virus): activity against herpes virus
Me3 NH!8 Si2 W18 Nb6 O77 ! | > 100 µM | > 1 µM | 0.081 µM | > 100 µM | –
silicotungstate acid [H4 SiW12 O40] | – | – | – | – | toxicity in higher animals [2]: toxicity in higher animals; activity against HIV (HIV): has activity against HIV
